A short description of the test: Binding affinity against S1 subsite of the Tetanus neurotoxin (TeNt). The arrangement: species or system Clostridium tetani.

Each structure is given as a SMILES string.

The record followed here is ChEMBL document CHEMBL1131081, “Beta-amino-thiols inhibit the zinc metallopeptidase activity of tetanus toxin light chain” (J Med Chem, 1998).

On to `NCC(CS)CCS(=O)(=O)O` (stereo unspecified), for which affinity was put at a Ki of 500 µM.

As for `NC(CS)CCS(N)(=O)=O` (stereo unspecified), the inhibitory constant (Ki) – broadly, a measure of affinity in units of concentration, obtained from inhibition or displacement – worked out at 100 µM.

Compound `CN(C)C(=O)c1cccc(C(N)CS)c1` (stereo unspecified) displayed a Ki of 250 µM.

The compound `NC(CS)c1cccc(S(=O)(=O)O)c1` (stereo unspecified) had a Ki of 40 µM.

For the compound `NC(CS)c1cccc(S(N)(=O)=O)c1` (stereo unspecified), the affinity, expressed as Ki, was 35 µM.

As to `NC(=O)c1cccc(C(N)CS)c1` (stereo unspecified), affinity was put at a Ki of 125 µM.
